Test results from article PMC8835475, “Salviolone from Salvia miltiorrhiza Roots Impairs Cell Cycle Progression, Colony Formation, and Metalloproteinase-2 Activity in A375 Melanoma Cells: Involvement of P21(Cip1/Waf1) Expression and STAT3 Phosphorylation” (International Journal of Molecular Sciences, 2022).
Each block holds one compound with its values, some of them ahead of it.

What was measured:
Assay type in all cases: cell-based, human
MeWo melanoma cell line = experiment: SRB cell viability assay in MeWo cells; conditions: SRB, 72 h; for EC50: Homo sapiens, read-out: EC50 useful in diminishing cell viability; for effect on cell viability: at least until 40 µM
Method: (§1) In preliminary experiments, the evaluation of cell viability at different time after compound administration was carried out with sulforhodamine B (SRB) assay. Indeed, after 24-, 48-, and 72-h treatment, an evident time dependence in the inhibition of cell growth was registered (data not shown). Thus, to evaluate A375 and MeWo cell viability, we decided to perform further SRB experiments with each compound only after 72 h.
(§2) Human MeWo (HTB-65) and A375 (CRL-1619) melanoma cell lines as well as the normal human epidermal melanocyte (NHEM) (PCS-200-013) cell line (ATCC, Manassas, VA, USA) were cultured at 37 °C under 5% CO2 in a humidified atmosphere. Roswell Park Memorial Institute 1640 medium (RPMI, Gibco, Ref.21875, Thermo Scientific, Waltham, MA, USA) was used to culture MeWo cells, while Dulbecco’s Modified Eagle Medium (DMEM, Gibco, Ref. 61965, Thermo Scientific, Waltham, MA, USA) was used for A375 and NHEM cell lines. The culture media were supplemented with 10% fetal bovine serum (FBS, Gibco, Thermo Scientific, Waltham, MA, USA) plus 1% Antibiotic Antimycotic Solution (Gibco, Thermo Scientific). The MEK1 inhibitor U0126 (CAY-70970) and the PI3K inhibitor LY294002 (CAY-70920) were provided by Cayman Chemical, Ann Arbor, MI, USA.
(§3) Melanoma MeWo and A375 cells or NHEM were seeded in 96-well plates (5.0 × 10^3 cells/well for MeWo cells and 2.9 × 10^3 cells/well for A375 or NHEM). After 24-h culture, the cells were treated with different concentrations of compounds 1–7. After 72-h treatment, the cells were fixed by adding 25 µL/well of 50% (w/v) TCA directly into the culture medium. The plates were incubated at 4 °C for 1 h, washed four times with ddH2O, and dried at RT. Staining was performed by adding 50 µL/well of 0.04% (w/v) sulforhodamine B (SRB) sodium salt solution (Sigma-Aldrich, Milan, Italy). After 1-h incubation at RT, the plates were rinsed with 1% HAc and air-dried. SRB was solubilized in a 10 mM Tris-base solution pH 10.5 and Abs492 measured in the plate reader TECAN NanoQuant Infinite M200 Pro (Tecan Group Ltd., Männedorf, Switzerland). Six replicates for each condition/data point were performed.

A375 melanoma cell line = experiment: SRB cell viability assay in A375 cells; conditions: for EC50: Homo sapiens, A-375, read-out: half maximal effective concentration (EC50) able to reduce cell viability; for EC50 / effect on cell viability / A375 cell viability, inhibitor administered alone: A375, SRB, 72 h; for effect on cell viability: at least until 40 µM; for potentiation of the decrease of A375 cell viability induced by 20 µM salviolone or cryptotanshinone: 10 µM inhibitor added 2 h before the diterpene; for A375 cell viability, inhibitor administered alone: concentration-dependent
Method: as §1, §2, §3

pERK1/2 = experiment: Immunoblot of pERK1/2 in A375 cells; conditions: 10 µM U0126 with compound 4 or 7 at 20 µM
Method: (§4) A375 cells were seeded in 6 cm Petri dishes (190 300 cell/dish) and treated with different compounds at 10 or 20 μM. After 48- or 72-h treatment, the cells were scraped using warm 1× sample buffer (2% SDS, 10% glycerol, 50 mM Tris-HCl, 1.75% β-mercaptoethanol, and bromophenol blue) and boiled at 99 °C for 10 min. Total protein extracts were kept at −80 °C until use.
(§5) Protein extracts were analyzed with a 7.5 or 10% polyacrylamide SDS-PAGE and transferred to a polyvinylidene difluoride membrane (PVDF, Thermo Fisher Scientific, Waltham, MA, USA). The membranes were blocked at RT for 1 h with TBST buffer (10 mM Tris-HCl pH 7.5, 100 mM NaCl, 0.1% Tween20) containing 4% Milk (Formulat). Then, they were incubated on a shaker, overnight (ON) at 4 °C, with 5% BSA solution containing primary antibodies against p-Tyr705-STAT3 (#9145, 1:1000), pRb (#8516, 1:2000), pERK (#4370, 1:1000), pAkt (#4060, 1:2000), pSer15-P53 (#9286, 1:2000) (Cell Signaling Technology, Danvers, […], USA), Akt (GTX121937, 1:3000), ERK (GTX134452, 1:6000), Cyclin A2 (GTX-103042, 1:3000), p-Thr160Cdk2 (GTX-133862, 1:3000), p21 (GTX-629543, 1:3000) (Genetex, Alton Pkwj Irvine, CA, USA), p53 (Sc-263, 1:1000), STAT3 (Sc-482, 1:1000), and p-Ser727-STAT3 (Sc-136193, 1:1000) (Santa Cruz Biotechnology, Dallas, TX, USA). The membranes were washed three times with TBST buffer for 30 min and then incubated for 1 h with a horseradish-peroxidase-conjugated secondary antibody (anti-rabbit 1:6000, Genetex), (anti-mouse, 1:4000, Cell Signaling Technology, Danvers, […], USA). They were washed another three times for 30 min with TBST buffer. All protein extracts were normalized with a β-actin protein antibody (GTX-124214, 1:10,000; Genetex, Alton Pkwj Irvine, CA, USA). Immuno-detection was carried out with an ECL kit (GE-Healthcare, Little Chalfont, UK), and the chemiluminescence signals were detected with ChemiDoc (Bio-Rad, Hercules, CA, USA).

pAkt = experiment: Immunoblot of pAkt in A375 cells; conditions: 10 µM LY294002 with compound 7 or 4 at 20 µM
Method: as §4, §5

EC50 (MeWo melanoma cell line): 2 µM | EC50 (A375 melanoma cell line): ~1 µM
SMILES: Cc1coc2c1C(=O)C(=O)c1c-2ccc2c1CCCC2(C)C [Compound 1, tanshinone IIA]

SMILES: Cc1coc2c1C(=O)C(=O)c1c-2ccc2c1[C@@H](O)CCC2(C)C [Compound 2, 1α-hydroxytanshinone]
effect on cell viability (MeWo melanoma cell line): ineffective | effect on cell viability (A375 melanoma cell line): ineffective

SMILES: Cc1coc2c1C(=O)C(=O)c1c-2ccc2c1C(=O)CCC2(C)C [Compound 3, 1-oxotanshinone]
effect on cell viability (MeWo melanoma cell line): ineffective | effect on cell viability (A375 melanoma cell line): ineffective

EC50 (MeWo melanoma cell line): 45 µM | EC50 (A375 melanoma cell line): ~42 µM
SMILES: C[C@H]1COC2=C1C(=O)C(=O)c1c2ccc2c1[C@H](O)CCC2(C)C [Compound 5, 1β-hydroxycryptotanshinone]
activity rating for inhibition of melanoma cell viability (A375 melanoma cell line; A375 and MeWo, SRB): poorly active

SMILES: CC1COc2c1c(=O)oc(=O)c1c3c(ccc21)C(C)(C)CCC3O (stereo not drawn) [Compound 6, 1α-hydroxyanhydride-16R-cryptotanshinone]
effect on cell viability (MeWo melanoma cell line): ineffective | effect on cell viability (A375 melanoma cell line): ineffective

SMILES: N#CC(=C(/N)Sc1ccccc1N)/C(C#N)=C(/N)Sc1ccccc1N [Compound U0126, reference compound]
potentiation of the decrease of A375 cell viability induced by 20 µM salviolone or cryptotanshinone (A375 melanoma cell line): did not potentiate | A375 cell viability, inhibitor administered alone (A375 melanoma cell line): inhibited | pERK1/2 expression level on co-administration (pERK1/2): strongly inhibited

SMILES: O=c1cc(N2CCOCC2)oc2c(-c3ccccc3)cccc12 [LY294002, reference compound]
pAkt expression level on co-administration (pAkt): inhibition | potentiation of the decrease of A375 cell viability induced by 20 µM salviolone or cryptotanshinone (A375 melanoma cell line): did not potentiate | A375 cell viability, inhibitor administered alone (A375 melanoma cell line): inhibited
